Literature values as cited in patent US20130078304A1, “CONTROLLED RELEASE FORMULATION FOR TREATING SLEEP DISORDERS” (TAIWAN BIOTECH CO., LTD., priority 2011, published 2013).

What was measured:
[1] = molecular target: T1, benzodiazepine (BZ1) receptors (Homo sapiens, UniProt P14867+P18507)
T1 sequence (P14867 28-456): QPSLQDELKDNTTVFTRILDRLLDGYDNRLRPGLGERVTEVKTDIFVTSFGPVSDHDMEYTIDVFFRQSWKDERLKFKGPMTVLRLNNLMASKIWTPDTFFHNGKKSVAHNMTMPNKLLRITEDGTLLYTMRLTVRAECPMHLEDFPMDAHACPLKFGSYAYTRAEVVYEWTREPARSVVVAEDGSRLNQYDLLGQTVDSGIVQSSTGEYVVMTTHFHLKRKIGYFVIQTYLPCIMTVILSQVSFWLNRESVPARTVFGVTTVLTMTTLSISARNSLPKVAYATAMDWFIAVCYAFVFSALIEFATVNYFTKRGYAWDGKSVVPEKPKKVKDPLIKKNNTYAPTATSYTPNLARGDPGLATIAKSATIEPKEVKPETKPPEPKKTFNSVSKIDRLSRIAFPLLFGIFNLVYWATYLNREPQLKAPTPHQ
T1 sequence (P18507 40-467 limits assumed): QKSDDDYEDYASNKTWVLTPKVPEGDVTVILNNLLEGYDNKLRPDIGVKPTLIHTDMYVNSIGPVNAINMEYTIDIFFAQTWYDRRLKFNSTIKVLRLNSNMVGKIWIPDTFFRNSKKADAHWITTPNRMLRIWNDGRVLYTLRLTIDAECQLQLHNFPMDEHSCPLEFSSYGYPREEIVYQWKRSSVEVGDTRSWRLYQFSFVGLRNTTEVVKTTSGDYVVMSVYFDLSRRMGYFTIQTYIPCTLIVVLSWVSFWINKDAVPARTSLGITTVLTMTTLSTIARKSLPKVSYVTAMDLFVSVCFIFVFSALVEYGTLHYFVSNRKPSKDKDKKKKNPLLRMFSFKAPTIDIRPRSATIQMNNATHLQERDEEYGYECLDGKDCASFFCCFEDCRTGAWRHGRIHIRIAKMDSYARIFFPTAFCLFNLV
T1 sequence (P47870 25-512 partner limits assumed): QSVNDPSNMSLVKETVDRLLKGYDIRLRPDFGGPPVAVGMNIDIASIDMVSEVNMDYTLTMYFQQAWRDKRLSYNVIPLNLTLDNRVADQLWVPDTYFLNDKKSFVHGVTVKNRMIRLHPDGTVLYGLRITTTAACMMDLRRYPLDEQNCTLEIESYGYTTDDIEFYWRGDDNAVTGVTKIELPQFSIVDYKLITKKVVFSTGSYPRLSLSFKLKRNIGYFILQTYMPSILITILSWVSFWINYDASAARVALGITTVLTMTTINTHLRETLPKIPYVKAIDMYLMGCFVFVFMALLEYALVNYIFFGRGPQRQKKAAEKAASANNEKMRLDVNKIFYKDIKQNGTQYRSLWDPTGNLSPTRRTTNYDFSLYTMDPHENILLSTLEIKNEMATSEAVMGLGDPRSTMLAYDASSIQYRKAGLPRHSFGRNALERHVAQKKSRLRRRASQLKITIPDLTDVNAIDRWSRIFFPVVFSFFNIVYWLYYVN

CCN(C(C)=O)c1cccc(-c2ccnc3c(C#N)cnn23)c1 [Zaleplon, N-[3-(3-cyanopyrazolo-[1,5-a]-pyrimidin-7-yl)-phenyl]-N-ethyl acetamide]
solubility in aqueous media: poorly soluble
binding to the BZ1 receptor [1]: more weakly bound to the receptor than is Zolpidem
